From patent US20040242870A1, “Antiviral methods and compounds” (priority 2000, published 2004)
Like-named read-outs stand apart in the source and are kept apart here.

How the values were obtained:
HIV-1 = test: HeLa CD4 LTR β-gal/HL2/3 HIV-1 fusion assay; format: cell-based; details: fusion assay
Excerpt: This assay uses the HeLa CD4 LTR β-gal and HL2-3 cells available from the AIDS Research and Reference Reagent Repository. The HL2/3 are derived from HeLa cells and engineered to express HIV gp120 on their cell surface and Tat protein in their cytoplasma. Thus following gp 120/CD4/coreceptor-mediated fusion; cytoplasmic mixing results in the HL2/3 cell-derived Tat trans-activation of the β-galactosidase reporter. […] Twenty-four h prior to initiation of the assay cells were trypsinized, counted and 5×10^3 cells placed in a 0.2 cm well in media without selection antibiotics. To initiate the fusion assay HeLa CD4 LTR β-gal (5×10^3 cells per 0.2 cm well) were incubated with compound for 1 h at 37° C. HL2/3 cells (5×10^3) were added to the 0.2 cm well and the incubation continued for 48 h. At 48 h the wells were washed 1 time with PBS and β-galactosidase enzyme expression determined by chemiluminescence per manufacturers instructions (Tropix Gal-screen™, Tropix, Bedford, Mass.). Compound toxicity was monitored on sister plates using MTS dye reduction.

HeLa CD4 LTR β-gal cells = test: Compound toxicity in attachment assay (MTS dye reduction, sister plates); format: cell-based; details: read-out: TC50 (the source's name)
Procedure: At assay termination the assay plates were stained with the soluble tetrazolium-based dye MTS (CellTiter96® Reagent Promega) to determine cell viability and quantify compound toxicity. MTS is metabolized by the mitochondria enzymes of metabolically active cells to a soluble formazan product, allowing the rapid quantitative analysis cell viability and compound cytotoxicity. […] At termination of the assay 20 μL of MTS reagent was added per well and incubated for 4 h at 37° C. Adhesive plate sealers were used in place of the lids, the sealed plate was inverted several times to mix the soluble formazan product and the plate was read spectrophotometrically at 490 nm with a Molecular Devices Vmax plate reader.
The attachment assay was performed with the HeLa CD4 LTR , β-gal cells available from the AIDS Research and Reference Reagent Repository. […] HeLa CD4 LTR β-gal cells express cell surface CD4 and contain an LTR β-galactosidase reporter construct. Upon infection either the Tat protein incorporated into the virion or new Tat produced following virus integration and transcription trans-activates the LTR β-gal reporter, leading to expression of the β-galactosidase enzyme. HeLa CD4 LTR β-gal cells are routinely cultured with the required selection antibiotics and screened for mycoplasma contamination. Twenty-four h prior to initiation of the assay cells were trypsinized, counted and 1×10^4 cells placed in a 0.2 cm well in media without selection antibiotics. Media was removed at 24 h and compound in media placed on the cells and incubated for 15 to 30 min at 37° C. A known titer of virus was then added to the wells and the incubation continued for 1 h. At the end of the incubation the wells were washed 6 times with media and the culture continued for 48 h. At 48 h the wells were washed one time with PBS and β-galactosidase enzyme expression determined by chemiluminescence per manufacturers instructions (Tropix Gal-screen™, Tropix, Bedford, Mass.). Compound toxicity was monitored on sister plates using MTS dye reduction.

Row | Compound | Comments: suppression of β-galactosidase activity (HIV-1) | CC50 (HeLa CD4 LTR β-gal cells; Experiment 1, pretreat 0 h) [µM] | CC50 (HeLa CD4 LTR β-gal cells; Experiment 1, pretreat 4 h) [µM] | CC50 (HeLa CD4 LTR β-gal cells; Experiment 1, pretreat 24 h) [µM] | CC50 (HeLa CD4 LTR β-gal cells; Experiment 2, pretreat 0 h) [µM] | CC50 (HeLa CD4 LTR β-gal cells; Experiment 2, pretreat 4 h) [µM] | CC50 (HeLa CD4 LTR β-gal cells; Experiment 2, pretreat 24 h) [µM]
1 | C=C(C)[C@@H]1CCC(C)=C[C@H]1c1c(O)cc(CCCCC)cc1O [Cannabidiol, reference compound] | Suppression of β-galactosidase | – | – | – | – | – | –
2 | CC(C)=CCCC1(C)CCc2c(O)cc(C(C)(C)CCCC(C)C)cc2O1 (stereo not shown) [IG-08, 3,4-Dihydro-2-methyl-2-(4-methyl-3-pentenyl)-7-(1,1,5-trimethylhexyl)-2H-1-benzopyran-5-ol] | – | > 50 | > 50 | > 50 | > 50 | 29 | 12.2
